Data: patent US12187758B2 (ROME Therapeutics, Inc., priority 2022, dated 2025)
Like-named read-outs stand apart in the source and are kept apart here.

Assays:
Assay type in all cases: cell-based
THP1-Dual KO-TREX1 cells [1] = test: THP1 TREX1 KO inhibition assay, combination dosing; conditions: Homo sapiens, THP1-Dual, read-out: EC50 of Stampidine
Procedure: Exemplary compounds were tested to determine the effect of combined dosing of two compounds on the type 1 interferon response in THP1 Dual TREX1 KO cells treated with 5-aza-2′-deoxycytidine. Assay procedures and results are described below.
THP1 Dual TREX1 KO cells were purchased from InvivoGen. The THP1-Dual™ KO-TREX1 cells were cultured in RPMI 1640, 10% heat-inactivated fetal bovine serum, 25 mM HEPES, 10 μg/mL blasticidin, and 100 μg/mL Zeocin. THP1-Dual™ KO-TREX1 cells were treated with a dose titration of test compound in the presence of 1 μM 5-aza-2′-deoxycytidine (Sigma, cat #189825). Type 1 Interferon and cell viability were assessed after five days of treatment.
Stock solution of test compounds stampidine and Compound 2 were prepared in DMSO followed by a three-fold dilution in DMSO. The plate was prepared with a matrix of test compound concentrations, with stampidine on the y-axis (final concentrations 3 μM to 0.0003 μM) and Compound 2 on the x-axis (final concentrations 0.3 μM to 0.00003 μM). Additional 50× dilution was prepared in cell culture media for each dilution. 10 μL of diluted test compound was then added to a 384-well plate.
THP1-Dual™ KO-TREX1 cells were treated with 1 μM 5-aza-2′-deoxycytidine. THP1-Dual™ KO-TREX1 cells (50 μL) were added to each well of the 384-well plate containing test compound titration at 10,000 cells/well. Cells were incubated at 37° C., 5% CO2 in a humidified incubator for five days. On day five, 20 μL of cell supernatant was transferred to a 384-well, white-walled plate, followed by addition to each well of 50 μL of QUANTI-LUC solution containing stabilizer. Luminescence was detected on a plate reader according to manufacturer's instructions. Percent inhibition of interferon was calculated using the following analysis: (Average DMSO-Sample)/(Average DMSO-Average 30 μM stampidine)*100.
The remaining cells were assessed for cell viability by adding 30 μl of CellTiter-Glo (Promega, G9683) solution to each well, and placed on a shaker for 10 minutes at room temperature. Luminescence was detected on a plate reader, according to manufacturer's instructions. Percent inhibition of cell viability using CellTiter-Glo was calculated using the following analysis: (Average DMSO−Sample)/(Average DMSO−Average 20 μM viability control reagent)*100.
Combination analysis was performed using the Bivariate Response to Additive Interacting Doses (BRAID) according to Twarog, N. R., et al. Scientific Reports 6:25523 (DOI: 10.1038/srep25523). The best BRAID fit was determined to be k 2.00 (0.583-3.64), where k>0 denotes synergy, k=0 denotes additivity, and k<0 denotes antagonism. Potentiation modeling curves are provided for potentiation of Compound 2 at four concentrations of stampidine (FIG. 7A) and for potentiation of stampidine at four concentrations of Compound 2 (FIG. 7B).

THP1-Dual KO-TREX1 cells [2] = test: THP1 TREX1 KO inhibition assay (type 1 interferon response); conditions: Homo sapiens, 144 h, type 1 interferon (QUANTI-LUC), 1 μM 5-aza-2′-deoxycytidine, six days
Summary of the method: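 THP1-Dual KO-TREX1 cells were treated with a dose titration of compound, alone or with 1 μM 5-aza-2′-deoxycytidine, for six days at 37 °C. Type 1 interferon was read as secreted luciferase (QUANTI-LUC) in the supernatant, and viability by CellTiter-Glo luminescence.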

human PBMC = test: Decitabine-stimulated human PBMC assay; conditions: PBMCs, anti-CD3/anti-CD28, decitabine 10 μM, 5 days; FIGS. 3A and 3B
Procedure: EasySep buffer (32 mL, […] Technologies, cat. #20144) was used to dilute 8 mL of LRSC buffy coat (from fresh Leukopak) with gentle mixing. The diluted buffy coat (20 mL) was transferred into each of two SepMate 50 tubes, and the tubes were filled with 15 mL of Lyphoprep ([…], cat. #07851) density gradient. The SepMate tubes were then centrifuged at 1200 G for 10 minutes at room temperature with the brake on. The top layer of supernatant was collected in SepMate tubes by quickly pouring it into a new 50 mL conical tube. The PBMCs were washed with EasySep buffer×2 by centrifuging at 300 G for 5 minutes. The cells were resuspended in 30 mL of EasySep and centrifuged at 100 G for 5 minutes with the brake off, and the platelets were removed. The cells were then resuspended in 6 mL of 1×RBC lysis buffer (Invitrogen) and incubated at 37° C. for 5 minutes. 25 mL of EasySep buffer was then mixed into the tube and centrifuged at 300 G for 5 minutes. The cells were resuspended in 10 mL of EasySep buffer and the cells were then counted with Cellometer (AO/PI). The PBMCs were resuspended in RPMI1640 (ThermoFisher)+ 10% FBS (HyClone)+μ/s at 3×10^6/mL. The PBMCs (100 μL, 300 k PBMCs) were then seeded in a 96-well flat bottom microplate (Corning) that had been precoated with 100 μL of anti-CD3 antibody (10 μg/mL in PBS, Biolegend) or PBS at 4° C., one day before the assay was commenced.
To each well the following solutions were added 1) 100 μL of cells (final cell number per well is 3×10^5 cell/well); 2) 25 μL of anti-CD28 antibody at 6× (5 μg/mL final concentration, Biolegend); 3) 25 μL of decitabine at 6× (10 μM final concentration); and 4) Compound in DMSO was dispensed directly into each well with a d300e digital dispenser (Tecan). The final concentration of DMSO for each well was normalized to 0.3%. The plate was incubated at 37° C. without any agitation for 5 days. Samples were collected 120 hours after incubation to determine IFN-β […] levels using a U-PLEX Human IFN-β Assay Sector (5PL) (MSD, cat. #K151VIK-2).
After 5 days, the plate was spun down at 100×G for 5 minutes. Supernatants (100 μL) were collected for interferon R (IFN-0) analysis using the MSD assay noted above, and any residual supernatant was stored at −80° C.

PC3 cells = test: Mitochondria toxicity assay with PC3 cells, cytotoxicity (Cell Titer Glo); conditions: Homo sapiens, PC-3, 120 h, 5 days treatment
Summary of the method: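 Cytotoxicity reported in μM bins, A <1.0 through E >100.0. Measured via Cell Titer Glo luminescence (30 min, room temperature) after 5-day dose-titration treatment of PC3 cells, grown in F-12K/10% FBS, at 37° C, 5% CO2.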

[3] = test system: SDH-A (succinate dehydrogenase-A); test: Mitochondria toxicity assay with PC3 cells, in-cell ELISA SDH-A; conditions: 5 days treatment
Summary of the method: (§1)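 This in-cell ELISA was run on fixed, permeabilized PC3 cells after 5-day exposure to titrated compound, with cytotoxicity measured on a duplicate plate. Results are reported as categories A (<1.0 μM) to E (>100.0 μM).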

[4] = Mitochondria toxicity assay with PC3 cells, in-cell ELISA COX-1; conditions: 5 days treatment
Summary of the method: as §1

Row | SMILES | EC50 (THP1-Dual KO-TREX1 cells [1]; Compound 2 0 μM) | EC50 (THP1-Dual KO-TREX1 cells [1]; Compound 2 0.0001 μM) | EC50 (THP1-Dual KO-TREX1 cells [1]; Compound 2 0.001 μM) | EC50 (THP1-Dual KO-TREX1 cells [1]; Compound 2 0.01 μM) | IC50 (THP1-Dual KO-TREX1 cells [2]) | IFN-β production (human PBMC) | IC50 (PC3 cells) | IC50 [3] | IC50 [4]
1 | COC(=O)C(C)NP(=O)(OC[C@@H]1C=C[C@H](n2cc(C)c(=O)[nH]c2=O)O1)Oc1ccc(Br)cc1 (stereo partly drawn) [Stampidine, stampidine, reference compound] | 115 nM | 103 nM | 80 nM | 29 nM | – | – | – | – | –
2 | C#C[C@]1(CO)O[C@@H](n2cnc3c(N)nc(F)nc32)C[C@@H]1O [Compound 23, (2R,3S,5R)-5-(6-amino-2-fluoro-9H-purin-9-yl)-2-ethynyl-2-(hydroxymethyl) tetrahydrofuran-3-ol] | – | – | – | – | > 1000 nM | activated production of IFN-β | 10000 to 50000 nM | 50000 to 100000 nM | 10000 to 50000 nM
